Assay results as given in US20230391808A1, “PHOSPHAPHENALENE-GOLD(I) COMPLEXES AS CHEMOTHERAPEUTIC AGENTS AGAINST GLIOBLASTOMA” (priority 2020, published 2023).

Columns and labels:
NCH82 = assay: Crystal violet proliferation assay, NCH82; assay type: cell-based, human; conditions: glioblastoma cell line, 48 h exposure, mean of three biological replicates ± standard deviation
NCH89 = assay: Crystal violet proliferation assay, NCH89; assay type: cell-based, human; conditions: glioblastoma cell line, 48 h exposure, mean of three biological replicates ± standard deviation
NCH149 = assay: Crystal violet proliferation assay, NCH149; assay type: cell-based, human; conditions: glioblastoma cell line, 48 h exposure, mean of three biological replicates ± standard deviation
Description: In order to investigate the role of the fused phosphaphenalene ring in the bio-activity of the drug, the ability of Compound 5 to inhibit cell proliferation in the glioblastoma cell lines NCH82, NCH89 and NCH149 was examined. For this purpose, cells were incubated with increasing concentrations of Compound 5 and cell proliferation was evaluated by crystal violet assay.
The effect of different compounds on cell growth was evaluated by the crystal violet method as described earlier (J. P. Rigalli et al., Cancer Lett. 2016, 376, 165-172). Briefly, cells were seeded in 96-well plates (10,000 cells/well). After 24 h cell culture medium was replaced by fresh compound-containing medium (ten different concentrations (0.01 to 200 μM μM)). After 48 h of exposure extent of cell proliferation inhibition was determined by crystal violet staining of surviving cells. Therefore, cells were washed and stained with 0.5% crystal violet solution (2.5 g in 100 ml methanol, diluted with 400 ml aqua bidest) for 15 min, rinsed and dried overnight.
(§1) Next, crystal violet was solubilized in methanol and absorbance was measured at 555 nm. The proliferative index was calculated as crystal violet absorption intensity as percentage relative to baseline (no cells) as described before (T. Peters et al., Naunyn Schmiedebergs Arch Pharmacol. 2006, 372, 291-299.) Cell survival plotted against the decimal logarithm of drug concentration in μM (c (of compound x) in μM) and fitted to a sigmoidal dose-response curve using Graph Pad Prism 7.02 (GraphPad Software, San Diego, USA).

NCH517 [1] = assay: Crystal violet proliferation assay, brain metastasis NCH517; assay type: cell-based, human; conditions: brain metastasis cell line, 48 h, mean of three biological replicates ± standard deviation
From the text: (§2) Based on the remarkable results obtained with Compound 6, its anti-proliferative effects on a series of different cancer cell lines was investigated. To that end, in addition to the three glioblastoma cell lines described above, Compound 6 was employed on eleven other cancer cell lines including brain metastasis (NCH517, NCH604a and NCH466), meningioma (NCH93 and BenMen-1), IDH-mutant glioma (NCH511b, NCH1618 and NCH3763), and head and neck cancer cell lines (HNO210, HNO199 and HNO97) (Table 3).
(§3) The effect of different compounds on cell growth was evaluated by the crystal violet method as described earlier (J. P. Rigalli et al., Cancer Lett. 2016, 376, 165-172). Briefly, cells were seeded in 96-well plates (10,000 cells/well). […] After 48 h of exposure extent of cell proliferation inhibition was determined by crystal violet staining of surviving cells. […]
as §1

NCH604a [2] = assay: Crystal violet proliferation assay, brain metastasis NCH604a; assay type: cell-based, human; conditions: brain metastasis cell line, 48 h, mean of three biological replicates ± standard deviation
From the text: as §2, §3, §1

NCH466 [3] = assay: Crystal violet proliferation assay, brain metastasis NCH466; assay type: cell-based, human; conditions: brain metastasis cell line, 48 h, mean of three biological replicates ± standard deviation
From the text: as §2, §3, §1

NCH93 [4] = assay: Crystal violet proliferation assay, meningioma NCH93; assay type: cell-based, human; conditions: meningioma cell line, 48 h, mean of three biological replicates ± standard deviation
From the text: as §2, §3, §1

BenMen-1 = assay: Crystal violet proliferation assay, meningioma BenMen-1; assay type: cell-based, human; conditions: meningioma cell line, 48 h, mean of three biological replicates ± standard deviation
From the text: as §2, §3, §1

NCH551b = assay: CellTiter-Glo proliferation assay, IDH-mutant glioma NCH551b; assay type: cell-based, human; conditions: IDH-mutant glioma cell line, 48 h, mean of three biological replicates ± standard deviation
From the text: as §2
(§4) To assess the effect of Compound 4 and Compound 6 on cell growth of glioma stem-like cells (GSC) and GSC lines derived from IDH-mutant gliomas, cellular ATP levels were measured using the luminescent CellTiter-Glo Assay (Promega Corp, Madison, WI). GCS spheroid cultures were gently dissociated and cell suspensions were seeded in 96-well tissue culture plates (8,000 cells/well, 100 μl/well). After a 24-hour incubation period without any compound freshly reconstituted compound in ten final concentrations ranging from 0.01 μM to 200 μM were added and cells were incubated for 48 hours.
(§5) Before measurement, the plate was equilibrated at room temperature for 30 minutes. […] Next, the plate was incubated for 10 minutes at room temperature and finally, the luminescence was measured. […]

NCH1618 = assay: CellTiter-Glo proliferation assay, IDH-mutant glioma NCH1618; assay type: cell-based, human; conditions: IDH-mutant glioma cell line, 48 h, mean of three biological replicates ± standard deviation
From the text: as §2, §4, §5

NCH3763 = assay: CellTiter-Glo proliferation assay, IDH-mutant glioma NCH3763; assay type: cell-based, human; conditions: IDH-mutant glioma cell line, 48 h, mean of three biological replicates ± standard deviation
From the text: as §2, §4, §5

HNO210 = assay: Crystal violet proliferation assay, head and neck cancer HNO210; assay type: cell-based, human; conditions: head and neck cancer cell line, 48 h, mean of three biological replicates ± standard deviation
From the text: as §2, §3, §1

HNO199 = assay: Crystal violet proliferation assay, head and neck cancer HNO199; assay type: cell-based, human; conditions: head and neck cancer cell line, 48 h, mean of three biological replicates ± standard deviation
From the text: as §2, §3, §1

HNO97 = assay: Crystal violet proliferation assay, head and neck cancer HNO97; assay type: cell-based, human; conditions: head and neck cancer cell line, 48 h, mean of three biological replicates ± standard deviation
From the text: as §2, §3, §1

NCH466 [5] = assay: Annexin V apoptosis assay (flow cytometry), NCH466; assay type: cell-based, human; conditions: drug concentration of 2 μM, 48 hours
Description: (§6) For this purpose, cells were incubated with different concentrations of Compound 6 for 48 hours and subsequently analyzed by flow cytometry (see representative example in FIG. 4A). Annexin V and propidium iodide (PI) were used as indicators for apoptosis/necrosis.
(§7) To quantitate the extent of apoptosis and necrosis, either annexin V staining combined with DAPI or double labeling of cells with annexin V and propidium iodide (PI) was used. The double labeling allows the distinction between apoptotic (annexin V^pos/DAPI^neg or annexin V^pos/PI^neg) and necrotic (annexin V^pos/DAPI^pos or annexin V^pos/PI^pos) cells. Cells were seeded in a 6-well plate (2.5×10^5/well) and left to attach overnight. […]
(§8) After treatment supernatant containing apoptotic and necrotic cells was collected, cells were harvested, washed, and up to 1×10^6 cells were incubated with FITC-conjugated annexin V antibody diluted in 1:1000 DAPI solution following manufactures instructions (#51-65874X, BD Bioscienes, Franklin Lakes, USA) or incubated with FITC-conjugated annexin V antibody and PI for 15 min following manufacturer instructions (#51-65974X, BD Biosciences, Franklin Lakes, USA). Cells were acquired by flow cytometry using a BD LSRII flow cytometer (BD Bioscienes, Franklin Lakes, USA) and analyzed by FlowJo Software v7.6.5 (TreeStar, Ahland, USA).

NCH517 [6] = assay: Annexin V apoptosis assay (flow cytometry), NCH517; assay type: cell-based, human; conditions: drug concentration of 2 μM, 48 hours
Description: as §6, §7, §8

NCH604a [7] = assay: Annexin V apoptosis assay (flow cytometry), NCH604a; assay type: cell-based, human; conditions: drug concentration of 2 μM, 48 hours
Description: as §6, §7, §8

NCH93 [8] = assay: Annexin V apoptosis assay (flow cytometry), NCH93; assay type: cell-based, human; conditions: drug concentration of 2 μM, 48 hours
Description: as §6, §7, §8

[9] = tested on: head and neck cancer cell lines; assay: Annexin V apoptosis assay (flow cytometry), head and neck cancer cell lines; assay type: cell-based, human; conditions: drug concentration of 5 μM, 48 hours
Description: as §6, §7, §8

[10] = tested on: cancer cell lines derived from brain metastases, meningiomas, IDH-mutant gliomas and head and neck cancers; assay: Annexin V apoptosis assay (flow cytometry), all analyzed cell lines; assay type: cell-based, human; conditions: 48 hours (FIG. 4)
Description: as §6, §7, §8

NCH82 cell line = assay: Drug uptake kinetics by fluorescence microscopy; assay type: cell-based, human
Description: Based on the observed high bio-activity and the spectroscopic properties of Compound 6 as an example of the present invention, the drug uptake kinetics was investigated in NCH82 cell line. To this end, cells were treated with increasing concentrations of Compound 6 and its drug uptake was monitored with a fluorescence microscope (excitation/emission 350/455 nm; data not shown).
To measure the uptake kinetics of compound 6 by NCH82 cells, they were seeded in a 96-well plate (5,000 cells/well) and after 24 h, cell culture medium was replaced with compound 6 or DMSO-containing medium (0.1, 1 and 10 μM). Images were taken with a fluorescence microscope (Olympus, Shinjuku, Japan) at 1 h, 24 h and 48 h after treatment initiation. A laser with an excitation/emission spectrum of 350/455 nm was used and images were taken with a 10× objective.

[11] = Stability under controlled thermodynamic conditions upon repetitive cycles of illumination; assay type: physicochemical; conditions: data not shown
cancer cell lines = assay: Anti-proliferative effects on a series of different cancer cell lines; assay type: cell-based, human; conditions: summary over all cell lines of Table 3; read-out: mean IC50 values in some cell lines
From the text: as §2, §3
as §1, with “USA). […]” for “USA).”

CC(=O)OC[C@H]1O[C@@H]([S][Au-][P+]2(c3ccccc3)c3ccn(C)c3-c3cccc4cccc2c34)[C@H](OC(C)=O)[C@@H](OC(C)=O)[C@@H]1OC(C)=O (stereo partly drawn) [Compound 6]
IC50 (NCH82): 730 nM
IC50 (NCH89): 4000 nM
IC50 (NCH149): 870 nM
IC50 (NCH517 [1]): 1600 ± 300 nM
IC50 (NCH604a [2]): 1860 ± 140 nM
IC50 (NCH466 [3]): 1010 ± 20 nM
IC50 (NCH93 [4]): 1350 ± 90 nM
IC50 (BenMen-1): 1320 ± 120 nM
IC50 (NCH551b): 1230 ± 250 nM
IC50 (NCH1618): 880 nM
IC50 (NCH3763): 5210 ± 310 nM
IC50 (HNO210): 1100 ± 80 nM
IC50 (HNO199): 2650 ± 250 nM
IC50 (HNO97): 5510 ± 1040 nM
cells in apoptosis/necrosis, NCH466 (NCH466 [5]): more than 50%
cells in apoptosis/necrosis, NCH517 (NCH517 [6]): more than 50%
cells in apoptosis/necrosis, NCH604a (NCH604a [7]): more than 50%
cells in apoptosis/necrosis, NCH93 (NCH93 [8]): more than 50%
cells in apoptosis/necrosis, head and neck cancer cell lines [9]: more than 50%
induction of apoptosis/necrosis in all analyzed cell lines [10]: able to induce apoptosis/necrosis
time after treatment initiation at which dead cells were first observed (NCH82 cell line; 0.1 μM): 48 h
time after which cell death could be observed (NCH82 cell line; 1 μM): 24 h
stability upon repetitive cycles of illumination [11]: very high stability
IC50 (cancer cell lines): ~1500 nM
